BigSolDB 2.1

COc1ccc(CN2CCNCC2)c(OC)c1OC.Cl.Cl
solubility (mole fraction)
Conditions	278.15 K	283.15 K	288.15 K	293.15 K	298.15 K	303.15 K	308.15 K	313.15 K	318.15 K	323.15 K
in 1,4-dioxane	–	–	5.08e-05	6.07e-05	7.16e-05	8.25e-05	9.48e-05	0.000109	0.000124	0.000141
in 2-butanone	6.02e-06	6.56e-06	7.1e-06	7.72e-06	8.35e-06	9.05e-06	9.85e-06	1.06e-05	1.15e-05	1.24e-05
in DMF	0.00053	0.000566	0.000609	0.000658	0.000705	0.000754	0.000803	0.000857	0.000913	0.000975
in acetone	6.23e-06	6.82e-06	7.47e-06	8.16e-06	8.85e-06	9.62e-06	1.03e-05	1.11e-05	1.2e-05	1.3e-05
in acetonitrile	1.23e-05	1.37e-05	1.49e-05	1.63e-05	1.77e-05	1.9e-05	2.04e-05	2.19e-05	2.38e-05	2.58e-05
in ethanol	0.000583	0.000652	0.000727	0.000805	0.00089	0.000987	0.00109	0.0012	0.00132	0.00145
in ethyl acetate	0.00201	0.00209	0.00217	0.00226	0.00234	0.00244	0.00254	0.00264	0.00275	0.00286
in isopropanol	7.61e-05	9.15e-05	0.00011	0.000133	0.000157	0.000184	0.000215	0.000247	0.000287	0.000333
in methanol	0.00353	0.00402	0.00458	0.00524	0.00603	0.00682	0.00777	0.00882	0.00993	0.0111
in n-butanol	0.000131	0.000153	0.000177	0.000201	0.000232	0.000263	0.000297	0.000336	0.000383	0.000432
in n-propanol	0.000193	0.000217	0.000246	0.000281	0.000322	0.000366	0.000413	0.000464	0.000521	0.000581
in toluene	7.02e-07	8.19e-07	9.58e-07	1.12e-06	1.33e-06	1.57e-06	1.83e-06	2.12e-06	2.43e-06	2.76e-06
